{"source": "ChEMBL document CHEMBL1136820", "about": "“The role of 2',3'-unsaturation on the antiviral activity of anti-HIV nucleosides against 3TC-resistant mutant (M184V)” (Bioorg Med Chem Lett, 2003)", "key": {"[1]": {"test_system": "Human immunodeficiency virus type 1 reverse transcriptase (Human immunodeficiency virus 1), Q72547 [M184V]", "test": "In vitro antiviral activity against HIV-1 Reverse transcriptase M184V mutant"}, "[2]": {"test_system": "HIV-1 reverse transcriptase (Human immunodeficiency virus 1)", "test": "Ratio for inhibition of HIV-1 RT to that of type and HIV-1 RT M184V mutant was determined"}, "[3]": {"molecular_target": "Human immunodeficiency virus type 1 reverse transcriptase (Human immunodeficiency virus 1) (UniProt Q72547)", "test": "In vitro antiviral activity against HIV-1 Reverse transcriptase wild type"}}}
{"compound": "Nc1ccn(C2SC(CO)C=C2F)c(=O)n1", "note": "(configuration not stated)", "values": [{"measurement": "EC90", "setting": "[1]", "result": 125, "unit": "µM"}, {"measurement": "FI", "setting": "[2]", "result": 25}, {"measurement": "EC90", "setting": "[3]", "result": 5, "unit": "µM"}]}
{"compound": "Nc1ccn([C@@H]2O[C@H](CO)C=C2F)c(=O)n1", "values": [{"measurement": "EC90", "setting": "[1]", "result": 1.8, "unit": "µM"}, {"measurement": "FI", "setting": "[2]", "result": 0.23}, {"measurement": "EC90", "setting": "[3]", "result": 8, "unit": "µM"}]}
{"compound": "Nc1nc(=O)n([C@@H]2C=C[C@H](CO)O2)cc1F", "values": [{"measurement": "FI", "setting": "[2]", "result": 0.8}]}
